Results reported in US20190308988A1, “OPIOID RECEPTOR ANTAGONIST PRODRUGS” (Nirsum Laboratories, Inc., priority 2017, published 2019).

How the values were obtained:
[1] = Plasma stability, human plasma (HPLC-MS); type: in vitro ADME; conditions: 2 μM, 37° C., 120 min
Method: (§1) Plasma Stability Determination of the Test Compounds in Rat, Dog, Cynomolgus Monkey and human plasma is performed using HPLC-MS. For rat, incubations are carried out in 96-well polypropylene plates in 5 aliquots of 70 μL each (one for each time point). […] Five time points are analyzed (0, 15, 120, 480 and 1440 min). […] All incubations are performed in duplicates. The samples are analyzed by HPLC-MS. The percentage of parent compound remaining after incubation in plasma is determined.

[2] = Liver S9 fraction stability, human; type: in vitro ADME; conditions: human liver S9 1.0 mg/ml, 2 μM, 37° C.
Method: (§2) Liver S9 fraction stability determination of the test compounds in dog, cynomolgus monkey and human is performed using HPLC-MS. Test compound (2 μM, 0.1% DMSO, 1% Methanol final concentration) was assessed for stability in a 50 μl phosphate buffer containing 1.0 mg/ml S9 protein from each of the three species and 5 mM D-saccharic acid-1, 4-lactone. Samples were incubated at 37° C. for 60 minutes and the % compound remaining was assessed.

[3] = Liver S9 fraction stability, monkey; type: in vitro ADME, cynomolgus monkey; conditions: monkey liver S9 1.0 mg/ml, 2 μM, 37° C.
Method: as §2

[4] = Liver S9 fraction stability, dog; type: in vitro ADME; conditions: dog liver S9 1.0 mg/ml, 2 μM, 37° C.
Method: as §2

[5] = in vivo; cited from earlier work
[6] = Plasma stability, monkey plasma (HPLC-MS); type: in vitro ADME, Cynomolgus Monkey; conditions: 2 μM, 37° C.
Method: as §1

[7] = Polymorph screening of solid state drug substances (Table 23); type: physicochemical; conditions: stirred 50 °C 72 hours; for Dry method and appearance: dried solid

CCCCCCCCCCCC(=O)OCN1C(=O)CCc2ccc(OCCCCN3CCN(c4cccc(Cl)c4Cl)CC3)cc21 [Aripiprazole lauroxil, reference compound]
% remaining at time point in minutes, 120 min [1]: 80% | % remaining at 60 minutes, Human [2]: 47.8% | % remaining at 60 minutes, Monkey [3]: 56.6% | % remaining at 60 minutes, Dog [4]: 66.1%

Oc1ccc2c3c1O[C@H]1[C@H](O)CC[C@@]4(O)[C@@H](C2)N(CC2CC2)CC[C@]314 [6-β-naltrexol]
mean elimination half-life [5]: thirteen

CCCCCCCCCCCCCCCC(=O)OC1CCCn2c1nc(C)c(CCN1CCC(c3noc4cc(F)ccc34)CC1)c2=O (centres unmarked) [Paliperidone palmitate, reference compound]
% remaining at 60 minutes, Human [2]: 47.8% | % remaining at 60 minutes, Monkey [3]: 57.4% | % remaining at 60 minutes, Dog [4]: 56.4% | % remaining at time point in minutes, 15 min [6]: 92%

C=C1CC[C@@]2(O)C3Cc4ccc(OC(=O)NC(C)(C)C)c5c4[C@@]2(CCN3CC2CC2)[C@H]1O5 [Compound 40, (4aS,7aS,12bS)-3-(cyclopropylmethyl)-4a-hydroxy-7-methylene-2,3,4,4a,5,6,7,7a-octahydro-1H-4,12-methanobenzofuro[3,2-e]isoquinolin-9-yl tert-butylcarbamate]
melting point: 107.6 °C | XRPD results (Dried) ([7]; Acetone): Amorphous | Dry method and appearance ([7]; Acetone): Evaporation/white powder | XRPD results (Dried) ([7]; EtOAc): Pattern A | Dry method and appearance ([7]; EtOAc): Evaporation/white powder | XRPD results (Dried) ([7]; Heptane): Pattern A | Dry method and appearance ([7]; Heptane): Centrifugation/white powder | XRPD results (Dried) ([7]; Isopropanol): Amorphous | Dry method and appearance ([7]; Isopropanol): Evaporation/oil | XRPD results (Dried) ([7]; MTBE): Amorphous | Dry method and appearance ([7]; MTBE): Evaporation/white powder
